Calls of active or inactive are those of the source.
Legend:
[1] = fluconazole-exposed Candida albicans growth modulators – fluorescence, retest, confirmation (AID 2467); type: functional, cell-based
Exodeoxyribonuclease V = biological target: T1, Exodeoxyribonuclease V (Escherichia coli (strain K12), UniProt P04993+P07648+P08394); test: RecBCD inhibition via phage-restricted bacterial growth – absorbance, V66 E. coli, mutant T4 phage, counter-screen for AddAB inhibitor project, dose response (AID 492957); type: functional, cell-based, Escherichia coli str. K-12 substr. MG1655
T1 sequence (P04993 whole entry): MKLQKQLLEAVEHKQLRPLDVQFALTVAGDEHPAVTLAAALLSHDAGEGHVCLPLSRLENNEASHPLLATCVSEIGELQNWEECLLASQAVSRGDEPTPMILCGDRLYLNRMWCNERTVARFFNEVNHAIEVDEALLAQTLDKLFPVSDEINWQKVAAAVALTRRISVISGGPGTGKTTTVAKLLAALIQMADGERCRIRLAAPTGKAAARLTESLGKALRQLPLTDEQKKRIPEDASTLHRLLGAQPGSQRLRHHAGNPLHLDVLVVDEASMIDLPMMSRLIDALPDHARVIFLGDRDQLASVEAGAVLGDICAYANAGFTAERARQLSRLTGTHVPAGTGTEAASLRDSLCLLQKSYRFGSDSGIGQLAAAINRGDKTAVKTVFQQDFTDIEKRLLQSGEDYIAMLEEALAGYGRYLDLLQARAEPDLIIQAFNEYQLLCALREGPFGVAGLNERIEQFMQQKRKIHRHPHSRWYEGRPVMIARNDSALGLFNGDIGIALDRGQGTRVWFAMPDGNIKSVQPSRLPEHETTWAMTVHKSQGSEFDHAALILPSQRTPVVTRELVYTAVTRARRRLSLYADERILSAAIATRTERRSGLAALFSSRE
T1 sequence (P07648 whole entry): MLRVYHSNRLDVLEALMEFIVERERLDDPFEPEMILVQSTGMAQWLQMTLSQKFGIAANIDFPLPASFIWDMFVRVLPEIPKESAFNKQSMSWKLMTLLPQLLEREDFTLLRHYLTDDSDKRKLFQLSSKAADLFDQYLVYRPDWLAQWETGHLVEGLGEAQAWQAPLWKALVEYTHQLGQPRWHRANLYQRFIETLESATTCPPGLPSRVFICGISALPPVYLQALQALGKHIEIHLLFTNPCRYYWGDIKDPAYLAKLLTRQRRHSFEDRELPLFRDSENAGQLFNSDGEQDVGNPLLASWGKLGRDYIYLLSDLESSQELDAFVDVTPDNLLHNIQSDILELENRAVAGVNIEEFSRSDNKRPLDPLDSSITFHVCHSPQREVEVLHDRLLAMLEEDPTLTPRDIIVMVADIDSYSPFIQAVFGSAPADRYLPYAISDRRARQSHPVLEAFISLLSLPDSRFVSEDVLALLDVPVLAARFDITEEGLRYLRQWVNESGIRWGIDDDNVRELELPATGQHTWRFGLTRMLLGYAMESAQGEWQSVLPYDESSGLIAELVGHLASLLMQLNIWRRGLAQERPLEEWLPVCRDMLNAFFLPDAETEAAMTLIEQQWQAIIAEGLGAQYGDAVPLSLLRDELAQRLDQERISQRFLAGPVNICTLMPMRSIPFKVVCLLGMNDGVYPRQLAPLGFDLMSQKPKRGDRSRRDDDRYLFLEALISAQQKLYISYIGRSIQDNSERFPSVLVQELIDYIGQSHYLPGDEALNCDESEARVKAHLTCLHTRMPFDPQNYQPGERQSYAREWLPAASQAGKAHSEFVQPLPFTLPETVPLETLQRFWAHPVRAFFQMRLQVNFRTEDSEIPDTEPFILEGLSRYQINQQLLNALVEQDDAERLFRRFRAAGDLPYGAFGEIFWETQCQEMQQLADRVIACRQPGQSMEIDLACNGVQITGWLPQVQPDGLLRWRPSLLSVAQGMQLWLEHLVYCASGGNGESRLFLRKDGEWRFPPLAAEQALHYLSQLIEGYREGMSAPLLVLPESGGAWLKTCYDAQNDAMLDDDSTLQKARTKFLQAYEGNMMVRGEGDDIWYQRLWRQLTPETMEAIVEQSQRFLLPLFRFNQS
T1 sequence (P08394 whole entry): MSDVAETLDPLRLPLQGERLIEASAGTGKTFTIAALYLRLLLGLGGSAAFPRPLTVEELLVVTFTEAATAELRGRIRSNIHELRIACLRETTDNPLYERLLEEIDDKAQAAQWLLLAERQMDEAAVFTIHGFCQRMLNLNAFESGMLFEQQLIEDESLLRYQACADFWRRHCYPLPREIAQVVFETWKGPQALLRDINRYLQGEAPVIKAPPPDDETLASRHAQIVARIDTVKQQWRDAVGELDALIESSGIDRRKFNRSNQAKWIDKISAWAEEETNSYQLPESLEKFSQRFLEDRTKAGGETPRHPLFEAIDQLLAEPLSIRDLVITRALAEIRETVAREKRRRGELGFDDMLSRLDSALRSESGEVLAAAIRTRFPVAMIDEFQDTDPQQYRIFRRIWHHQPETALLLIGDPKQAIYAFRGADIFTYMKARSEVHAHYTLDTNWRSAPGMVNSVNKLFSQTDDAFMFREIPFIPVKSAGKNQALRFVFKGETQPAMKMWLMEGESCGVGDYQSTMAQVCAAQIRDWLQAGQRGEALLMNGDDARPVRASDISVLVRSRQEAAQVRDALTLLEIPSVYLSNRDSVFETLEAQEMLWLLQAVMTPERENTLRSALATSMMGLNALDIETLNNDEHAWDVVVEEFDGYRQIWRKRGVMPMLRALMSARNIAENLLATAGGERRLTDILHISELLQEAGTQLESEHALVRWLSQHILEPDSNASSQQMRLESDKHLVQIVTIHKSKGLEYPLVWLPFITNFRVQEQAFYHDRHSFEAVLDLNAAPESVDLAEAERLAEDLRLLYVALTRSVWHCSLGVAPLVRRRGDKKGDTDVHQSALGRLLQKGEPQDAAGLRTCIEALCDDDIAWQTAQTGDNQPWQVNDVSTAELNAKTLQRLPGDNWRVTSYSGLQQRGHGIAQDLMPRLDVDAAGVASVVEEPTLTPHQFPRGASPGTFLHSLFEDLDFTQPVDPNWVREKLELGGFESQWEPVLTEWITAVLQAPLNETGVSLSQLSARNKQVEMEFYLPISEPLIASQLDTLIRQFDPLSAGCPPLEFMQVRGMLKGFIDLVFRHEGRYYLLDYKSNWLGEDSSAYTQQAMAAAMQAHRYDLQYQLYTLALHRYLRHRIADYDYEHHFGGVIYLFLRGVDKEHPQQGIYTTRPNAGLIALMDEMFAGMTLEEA

Compound	EC50 [1]	IC50 (Exodeoxyribonuclease V)
CCCCC(=O)NC(c1ccco1)c1cc(Cl)c2cccnc2c1O (stereo unspecified)	0.537 µM (active)	> 119 µM (inactive)
CCCCC(=O)NC(c1ccc(Cl)cc1)c1ccc2cccnc2c1O (stereo unspecified)	0.413 µM (active)	> 119 µM (inactive)
O=C(N/N=C/c1ccccc1O)/C(O)=C\C1=NC2(CCCC2)Cc2ccccc21	0.663 µM (active)	> 119 µM (inactive)

— ChEMBL document CHEMBL1201862, “PubChem BioAssay data set” (2004)
